Measurements taken from patent US11078161B2, “Rock-inhibiting compound and uses thereof” (HITGEN INC., priority 2017, dated 2021).

Key:
ROCK2 = ROCK2 (Homo sapiens, UniProt O75116); assay: Measurement of inhibitory activity against ROCK2 (ADP-Glo, S6K substrate); assay type: biochemical; settings: read-out: ROCK2 (IC50 class)
Description: ROCK2 was capable of phosphorylating a substrate of polypeptide S6K (KRRRLASLR) by converting ATP to ADP. An ADP-Glo™ reagent was adopted to terminate this reaction and consume the remaining ATP. Moreover, a kinase detection reagent was introduced to ensure that ATP was further converted into a luminescent signal by an Ultra-Glo™ luciferase while convening ADP into ATP, allowing the kinase activity to be positively correlated with the intensity of the luminescent signal.
The inhibitory activity against ROCK2 was determined as follows.
(1) A detection buffer containing 40 mM Tris (pH 7.5), 20 mM MgCl2, 0.1% BSA(w/v) and 50 μM DTT was prepared.
(2) 12 μL of 2.5×0.1 μg/mL ROCK2 solution was added to a 96-well PCR plate.
(3) The 96-well PCR plate was added with 6 μL of a 6× compound solution and pre-incubated at 25° C. for 10 min.
(4) Then the 96-well PCR plate was further added with 12 μL of a mixed solution of a 2.5×37.5 μg/mL S6K substrate solution and a 12.5 μM ATP solution, and incubated at 30° C. for 60 min.
(5) 25 μL of the reaction mixture was transferred to a new 96-well PCR plate, mixed with 25 μL of the ADP-Glo™ reagent uniformly and incubated at 25° C. for 40 min to terminate the reaction.
(6) After the reaction was terminated, 40 μL of the reaction mixture was transferred to another 96-well PCR plate, mixed with 40 μL of the kinase detection reagent uniformly and incubated at 25° C. for 40 min.
(7) The luminescence signal was recorded for the calculation of the inhibitory rate.
The inhibitory activity of the above-prepared compounds against the ROCK2 was measured according to the above process, and the results were shown in Table 1, in which the compounds were ranked according to the IC50 value. Specifically, “+” indicated an IC50 value greater than 500 nM; “++” indicated an IC50 value less than 500 nM and greater than 100 nM; and “+++” indicated an IC50 value less than 100 nM.

[1] = system: phosphorylation of the myosin light chain (T18/S19) of smooth muscle cells A7r5; assay: Detection of myosin light chain phosphorylation by In-Cell Western Blotting; assay type: cell-based; settings: rat smooth muscle cells A7r5, 1 h incubation in serum-free medium; read-out: A7r5 (IC50 class, inhibition of myosin light chain phosphorylation)
Description: ROCK2 was capable of altering the cytoskeleton by phosphorylating two amino acid sites (T18 and S19) on the myosin light chain. Smooth muscle cells A7r5 of rats were selected, inoculated into a 96 well black plate with a transparent bottom and cultured with DMEM containing 10% FBS. After cultured overnight, the cells were treated by serum starvation for 4 h and then incubated with respective compounds in serum-free medium for 1 h. The phosphorylation level of the myosin light chain was detected by In-Cell Western Blotting using a phspho-MLC-T18/S19-specific antibody and a secondary detection antibody. The untreated cells were used as positive control; the cells without undergoing primary antibody incubation were used as negative control; and total intracellular protein was used as an internal reference. The results were fitted by a non-linear regression curve with varying slope using GraphPad Prism 5.01 software to determine an IC50 value.
The detection of the inhibitory activity of the above-prepared compounds against the phosphorylation of the myosin light chain of smooth muscle cells A7r5 was performed according to the above process. The results were shown in Table 2, where the compounds were ranked according to the IC50 value.

[2] = system: New Zealand rabbits with normal intraocular pressure; assay: Animal experiment, normal intraocular pressure model; assay type: in vivo; settings: normal IOP rabbits, 50 μL to the right eye, IOP at 0-10 h
Description: 24 male New Zealand rabbits were averagely divided into 4 groups, and were randomly assigned to respective groups using a computer randomized algorithm involving weight. From […] before the experiment, all rabbits were required to be trained to adapt to the operation of intraocular pressure (IOP) measurement, and the training was performed 3 times a day with an interval of about 3 h. The intraocular pressure was measured using a TonoVet tonometer, specifically, individual animals were fixed and the eye to be tested was placed at a position perpendicular to the TonoVet tonometer. The IOP should be measured at least 3 times in each operation until the reading became stable. The results from the last three stable measurements (±3 mmHg) were recorded and averaged to be used as the final IOP value. Respective compounds were weighed and dissolved with normal saline to the desired concentration. At the beginning of the experiment, individual compounds of the invention, reference compound K115 or negative control solvent (50 μL) were administered to the right eye of each animal, and the left eye of each animal was treated by normal saline. The IOP was measured at time points Pre (0 h), 1 h, 2 h, 4 h, 6 h, 8 h and 10 h after the administration of drugs, and the data obtained at respective time points was analyzed by student-t test. The curve of IOP over time was analyzed using the ANOVA test, where a P value of less than 0.05 will be considered to be of statistical significance and the data was expressed by mean±standard deviation.

[3] = system: New Zealand rabbits with high intraocular pressure; assay: Animal experiment, high intraocular pressure monocular model; assay type: in vivo; settings: high IOP rabbits, 50 μL per eye three times a day (0, 3rd, 6th h), IOP at 0-8 h
Description: 10 male New Zealand rabbits were averagely divided into 2 groups and were randomly assigned to respective groups using a computer randomized algorithm involving weight. From 3 days to 1 day before the experiment, all rabbits were required to be trained to adapt to the operation of intraocular pressure (IOP) measurement, and the training was performed 3 times a day with an interval of about 3 h. The intraocular pressure was measured using a TonoVet tonometer, specifically, individual animals were fixed and the eye to be tested was placed at a position perpendicular to the TonoVet tonometer. The IOP should be measured at least 3 times in each operation until the reading became stable. The results from the last three stable measurements (±3 mmHg) were recorded and averaged to be used as the final IOP value. Respective compounds were weighed and dissolved with normal saline to the desired concentration. Before the induction of high intraocular pressure, the intraocular pressure values of both eyes were measured and used as the basic intraocular pressure value. […] The IOP was measured respectively 0, 1, 2, 3, 4, 6 and 8 h after the injection. The results obtained at individual time points were analyzed by student-t test, and the variation curve of IOP over time was analyzed using ANOVA test. […]

hypertensive model rats = settings: cited from earlier work

Chain of ROCK2 (O75116 whole entry): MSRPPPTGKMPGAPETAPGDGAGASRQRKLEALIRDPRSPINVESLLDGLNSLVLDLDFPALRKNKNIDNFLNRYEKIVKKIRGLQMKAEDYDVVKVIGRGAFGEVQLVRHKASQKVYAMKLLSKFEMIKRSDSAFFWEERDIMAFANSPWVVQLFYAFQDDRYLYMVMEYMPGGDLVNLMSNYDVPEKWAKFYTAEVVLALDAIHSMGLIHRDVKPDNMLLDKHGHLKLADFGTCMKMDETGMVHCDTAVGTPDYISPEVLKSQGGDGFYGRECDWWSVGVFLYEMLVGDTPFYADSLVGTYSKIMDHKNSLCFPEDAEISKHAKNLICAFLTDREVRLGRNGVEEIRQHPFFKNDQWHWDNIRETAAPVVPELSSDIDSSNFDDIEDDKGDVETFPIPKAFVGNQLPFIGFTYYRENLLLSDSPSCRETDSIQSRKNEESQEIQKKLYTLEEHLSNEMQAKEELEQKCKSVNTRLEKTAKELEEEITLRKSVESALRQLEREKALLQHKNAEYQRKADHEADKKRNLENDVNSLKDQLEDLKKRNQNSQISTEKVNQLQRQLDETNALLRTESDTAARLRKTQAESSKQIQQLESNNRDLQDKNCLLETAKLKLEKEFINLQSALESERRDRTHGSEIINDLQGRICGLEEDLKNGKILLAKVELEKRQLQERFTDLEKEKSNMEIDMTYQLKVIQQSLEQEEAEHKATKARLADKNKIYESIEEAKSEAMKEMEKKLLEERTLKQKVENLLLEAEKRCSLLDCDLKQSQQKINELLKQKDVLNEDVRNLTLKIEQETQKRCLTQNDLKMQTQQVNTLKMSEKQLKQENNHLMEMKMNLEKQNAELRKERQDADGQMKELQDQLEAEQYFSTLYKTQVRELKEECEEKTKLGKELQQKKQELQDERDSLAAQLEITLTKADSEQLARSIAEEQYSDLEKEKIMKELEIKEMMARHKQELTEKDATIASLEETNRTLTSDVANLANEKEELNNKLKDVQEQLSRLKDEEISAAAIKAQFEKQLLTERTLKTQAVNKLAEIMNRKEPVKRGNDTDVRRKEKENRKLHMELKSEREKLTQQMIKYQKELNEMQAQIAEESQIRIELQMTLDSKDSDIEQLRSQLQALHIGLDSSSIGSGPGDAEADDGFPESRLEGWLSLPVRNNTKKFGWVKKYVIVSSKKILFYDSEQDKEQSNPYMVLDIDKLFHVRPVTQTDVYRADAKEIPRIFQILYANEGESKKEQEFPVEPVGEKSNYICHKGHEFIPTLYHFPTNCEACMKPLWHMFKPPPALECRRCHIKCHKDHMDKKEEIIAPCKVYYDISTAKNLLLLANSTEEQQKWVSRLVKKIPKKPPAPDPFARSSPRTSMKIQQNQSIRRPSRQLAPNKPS

IC50 (ROCK2) | IC50 [1] | Structure (SMILES) | further results
< 100 nM | 250 to 1000 nM | NC[C@@H](NC(=O)c1ccc2cnccc2c1)c1ccccc1 [Compound 1, N—((S)-2-amino-1-phenyl-ethyl)isoquinoline-6-carboxamide] | 
< 100 nM | < 250 nM | NC[C@@H](NC(=O)c1ccc2cnccc2c1)c1cccc(Br)c1 [Compound 2, (S)—N-(2-amino-1-(3-bromophenyl)ethyl)isoquinoline-6-carboxamide] | 
100 to 500 nM |  | NC[C@@H](NC(=O)c1ccc2cnccc2c1)c1ccc(CO)cc1 [Compound 3, (S)—N-(2-amino-1-(4-(hydroxymethyl)phenyl)ethyl)isoquinoline-6-formamide] | 
100 to 500 nM | > 1000 nM | Cc1ccc(C(=O)OCc2ccc([C@@H](CN)NC(=O)c3ccc4cnccc4c3)cc2)c(C)c1 [Compound 4, (S)-4-(2-amino-1-(isoquinoline-6-formamido)ethyl)benzyl 2,4-dimethylbenzoate] | 
< 100 nM | 250 to 1000 nM | CN(C)C[C@@H](NC(=O)c1ccc2cnccc2c1)c1ccccc1 [Compound 5, N-((1S)-2-(dimethylamino)-1-phenyl-ethyl)isoquinoline-6-formamide] | acting time compared to K115 [2]: a longer acting time; intraocular pressure-reducing activity compared to K115 [2]: a similar intraocular pressure-reducing activity
< 100 nM | < 250 nM | NCCC(NC(=O)c1ccc2cnccc2c1)c1cccc(Cl)c1 (stereo not shown) [Compound 6, N-(3-amino-1-(3-chlorophenyl)propyl)isoquinoline-6-carboxamide] | 
< 100 nM | 250 to 1000 nM | CCOC(=O)c1cc(-c2cccc(C(CCN)NC(=O)c3ccc4cnccc4c3)c2)cs1 (stereo not shown) [Compound 7, ethyl 4-(3-(3-amino-1-(isoquinoline-6-formamide)propyl)phenyl)thiophene-2-carboxylate] | 
< 100 nM | > 1000 nM | CN(C)CCC(NC(=O)c1ccc2cnccc2c1)c1ccccc1 (stereo not shown) [Compound 8, N-(3-(dimethylamino)-1-phenyl-propyl)isoquinoline-6-formamide] | 
< 100 nM | 250 to 1000 nM | O=C(NC(c1ccccc1)C1CNC1)c1ccc2cnccc2c1 (stereo not shown) [Compound 9, N-(azetidin-3-yl-benzyl)isoquinoline-6-carboxamide] | 
< 100 nM | 250 to 1000 nM | CN1CC(C(NC(=O)c2ccc3cnccc3c2)c2ccccc2)C1 (stereo not shown) [Compound 10, N-((1-methylazetidin-3-yl)-benzyl)isoquinoline-6-carboxamide] | 
< 100 nM | 250 to 1000 nM | O=C(N[C@H](c1ccccc1)[C@@H]1CCNC1)c1ccc2cnccc2c1 [Compound 11a, N—((S)-phenyl-((R)-pyrrolidin-3-yl)methyl)isoquinoline-6-carboxamide] | effect on alleviating high intraocular pressure [3]: a good effect on alleviating high intraocular pressure; acting time compared to K115 [2]: a longer acting time; intraocular pressure-reducing activity compared to K115 [2]: a similar intraocular pressure-reducing activity
< 100 nM |  | O=C(N[C@@H](c1ccccc1)[C@@H]1CCNC1)c1ccc2cnccc2c1 [Compound 11b, N—((R)-phenyl-((R)-pyrrolidin-3-yl)methyl)isoquinoline-6-carboxamide] | 
< 100 nM |  | CN1CC[C@@H]([C@@H](NC(=O)c2ccc3cnccc3c2)c2ccccc2)C1 [Compound 12, N—((R)—((R)-1-methylpyrrolidin-3-yl)(phenyl)methyl)isoquinoline-6-carboxamide] | 
< 100 nM | 250 to 1000 nM | CN1CC[C@@H]([C@H](NC(=O)c2ccc3cnccc3c2)c2ccccc2)C1 [Compound 13, N—((S)—((R)-1-methylpyrrolidin-3-yl)(phenyl)methyl)isoquinoline-6-carboxamide] | 
100 to 500 nM |  | O=C(N[C@H](c1ccccc1)[C@H]1CCNC1)c1ccc2cnccc2c1 [Compound 14a, N—((S)-phenyl-((S)-pyrrolidin-3-yl)methyl)isoquinoline-6-carboxamide] | 
< 100 nM |  | O=C(N[C@@H](c1ccccc1)[C@H]1CCNC1)c1ccc2cnccc2c1 [Compound 14b, N—((R)-phenyl-((S)-pyrrolidin-3-yl)methyl)isoquinoline-6-carboxamide] | 
< 100 nM | 250 to 1000 nM | COc1cccc([C@@H](CN(C)C)NC(=O)c2ccc3cnccc3c2)c1 [Compound 15, N—((S)-2-(dimethylamino)-1-(3-methoxyphenyl)ethyl)isoquinoline-6-carboxamide] | 
 | 250 to 1000 nM | CN(C)C[C@@H](NC(=O)c1ccc2cnccc2c1)c1cccc(Cl)c1 [Compound 16, N—((S)-2-(dimethylamino)-1-(3-chlorophenyl)ethyl)isoquinoline-6-carboxamide] | 
 |  | C[C@@H](N)[C@H]1CC[C@H](C(=O)Nc2ccncc2)CC1 [Compound Y-27632] | blood pressure of control rats (hypertensive model rats; control rats): fails to show significant effects on the blood pressure; blood pressure of hypertensive model rats (hypertensive model rats; spontaneous, renal and deoxycorticosterone acetate-induced hypertension): significantly lowering the blood pressure
